Assay results reported in ChEMBL document CHEMBL4385620, “Inhibition of polypeptide N-acetyl-α-galactosaminyltransferases is an underlying mechanism of dietary polyphenols preventing colorectal tumorigenesis” (Bioorg Med Chem, 2019).
pIC50: −log10 of the molar value. Calls of active or inactive are those of the source. No cut-off for these calls is given here.

What was measured:
[1] = target: T1, Polypeptide N-acetylgalactosaminyltransferase 6 (Homo sapiens, UniProt Q8NCL4); assay: Inhibition of catalytic activity of ppGalNAcT6 (unknown origin) using EA2 peptide as substrate incubated for 30 mins by HPLC-based enzyme assay
T1 sequence (Q8NCL4 whole entry): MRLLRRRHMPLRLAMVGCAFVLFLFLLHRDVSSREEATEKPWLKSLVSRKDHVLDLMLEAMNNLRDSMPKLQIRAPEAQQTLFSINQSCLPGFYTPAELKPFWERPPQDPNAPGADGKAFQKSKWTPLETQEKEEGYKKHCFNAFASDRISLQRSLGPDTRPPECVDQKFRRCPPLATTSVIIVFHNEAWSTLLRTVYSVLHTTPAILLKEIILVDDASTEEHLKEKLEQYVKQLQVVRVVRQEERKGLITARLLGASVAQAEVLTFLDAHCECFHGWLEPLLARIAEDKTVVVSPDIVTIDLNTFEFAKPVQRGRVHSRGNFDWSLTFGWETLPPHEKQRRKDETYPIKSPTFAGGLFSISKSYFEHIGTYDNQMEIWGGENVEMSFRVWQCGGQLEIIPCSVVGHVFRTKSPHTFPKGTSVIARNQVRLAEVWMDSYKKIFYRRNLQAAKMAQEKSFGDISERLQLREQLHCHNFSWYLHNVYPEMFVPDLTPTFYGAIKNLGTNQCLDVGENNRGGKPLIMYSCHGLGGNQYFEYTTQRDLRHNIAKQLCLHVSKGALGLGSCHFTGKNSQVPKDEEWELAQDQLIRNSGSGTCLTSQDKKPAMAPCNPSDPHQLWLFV

[2] = target: T2, UDP-N-acetylglucosamine--peptide N-acetylglucosaminyltransferase 110 kDa subunit (Homo sapiens, UniProt O15294); assay: Inhibition of catalytic activity of OGT (unknown origin) using EA2 peptide as substrate incubated for 30 mins by HPLC-based enzyme assay
T2 sequence (O15294 whole entry): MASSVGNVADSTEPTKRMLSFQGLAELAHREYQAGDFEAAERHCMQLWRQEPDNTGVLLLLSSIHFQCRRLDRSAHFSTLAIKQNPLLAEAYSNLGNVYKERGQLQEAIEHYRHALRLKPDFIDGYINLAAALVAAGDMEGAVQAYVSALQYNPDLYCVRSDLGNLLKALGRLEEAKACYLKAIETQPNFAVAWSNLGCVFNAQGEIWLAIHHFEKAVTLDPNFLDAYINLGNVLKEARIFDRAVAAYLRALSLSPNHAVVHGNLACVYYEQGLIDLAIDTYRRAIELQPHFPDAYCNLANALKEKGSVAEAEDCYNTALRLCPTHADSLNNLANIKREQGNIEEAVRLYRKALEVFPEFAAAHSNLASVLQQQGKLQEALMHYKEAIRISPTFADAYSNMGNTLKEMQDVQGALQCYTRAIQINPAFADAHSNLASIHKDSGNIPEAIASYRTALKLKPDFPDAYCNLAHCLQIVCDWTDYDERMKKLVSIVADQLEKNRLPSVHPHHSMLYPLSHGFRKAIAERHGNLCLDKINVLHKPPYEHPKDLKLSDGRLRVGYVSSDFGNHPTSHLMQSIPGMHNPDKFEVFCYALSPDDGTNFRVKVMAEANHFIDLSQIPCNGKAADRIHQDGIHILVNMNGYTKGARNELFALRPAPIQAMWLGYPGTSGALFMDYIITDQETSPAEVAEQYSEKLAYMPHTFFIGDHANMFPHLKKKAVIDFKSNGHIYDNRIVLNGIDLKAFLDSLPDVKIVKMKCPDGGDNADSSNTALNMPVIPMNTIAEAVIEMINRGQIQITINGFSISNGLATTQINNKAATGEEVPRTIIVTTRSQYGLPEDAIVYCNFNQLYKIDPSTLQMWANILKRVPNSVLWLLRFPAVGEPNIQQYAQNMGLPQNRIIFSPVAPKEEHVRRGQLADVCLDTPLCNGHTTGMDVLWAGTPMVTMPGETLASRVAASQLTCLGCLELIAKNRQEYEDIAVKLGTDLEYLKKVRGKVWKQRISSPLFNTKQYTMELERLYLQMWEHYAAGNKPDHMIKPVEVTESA

[3] = target: T3, Polypeptide N-acetylgalactosaminyltransferase 2 (Homo sapiens, UniProt Q10471); assay: Inhibition of catalytic activity of human recombinant FLAG-tagged ppGalNAcT2 using Muc5AC peptide as substrate incubated for 30 mins by HPLC-based enzyme assay
T3 sequence (Q10471 whole entry): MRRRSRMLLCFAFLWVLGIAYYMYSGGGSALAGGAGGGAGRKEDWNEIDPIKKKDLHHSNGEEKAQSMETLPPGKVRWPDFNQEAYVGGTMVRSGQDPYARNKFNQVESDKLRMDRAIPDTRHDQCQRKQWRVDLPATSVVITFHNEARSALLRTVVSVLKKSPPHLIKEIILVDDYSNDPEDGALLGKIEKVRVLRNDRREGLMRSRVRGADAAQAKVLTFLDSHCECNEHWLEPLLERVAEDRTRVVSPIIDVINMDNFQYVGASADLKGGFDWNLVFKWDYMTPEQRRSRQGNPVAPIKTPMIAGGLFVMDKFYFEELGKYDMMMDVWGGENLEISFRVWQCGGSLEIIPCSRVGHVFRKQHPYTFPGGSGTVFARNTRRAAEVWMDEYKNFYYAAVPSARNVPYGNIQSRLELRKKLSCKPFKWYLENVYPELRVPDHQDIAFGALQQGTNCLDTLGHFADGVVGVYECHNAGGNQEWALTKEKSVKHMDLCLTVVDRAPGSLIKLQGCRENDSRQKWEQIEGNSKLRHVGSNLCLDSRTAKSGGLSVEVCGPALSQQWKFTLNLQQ

[4] = target: T3, Polypeptide N-acetylgalactosaminyltransferase 2; assay: Inhibition of ppGalNAcT2 in human HT-29 cells assessed as reduction in O-GalNAc glycans by measuring PNA lectin signal on cell surface at 40 uM incubated for 48 hrs by DAPI staining based immunofluorescence method
HT-29 [5] = assay: Effect on ppGalNAcT1 expression level in human HT-29 cells at 40 uM incubated for 48 hrs by Q-PCR analysis; type: ADME, cell-based; details: ht-29, 48 h
HT-29 [6] = assay: Effect on ppGalNAcT16 expression level in human HT-29 cells at 40 uM incubated for 48 hrs by Q-PCR analysis; type: ADME, cell-based; details: ht-29, 48 h
HCT-116 = assay: Cytotoxicity against human HCT116 cells at 40 uM incubated for 48 hrs by CCK-8 assay; type: cell-based; details: hct-116, 48 h
RKO = assay: Cytotoxicity against human RKO cells at 40 uM incubated for 48 hrs by CCK-8 assay; type: cell-based
HT-29 [7] = assay: Reduction in PDPN protein expression in human HT-29 cells at 40 uM for 48 hrs by Western blot analysis; type: functional, cell-based
[8] = target: T3, Polypeptide N-acetylgalactosaminyltransferase 2; assay: Inhibition of ppGalNAcT2 in human HT-29 cells assessed as reduction in PDPN O-GalNAc glycosylation by at 40 uM incubated for 48 hrs by jacalin lectin based immunoprecipitation analysis; type: cell-based

O=c1oc2c(O)c(O)ccc2c2cc(O)c(O)cc12
pIC50 [1]: 5.74 | pIC50 [2]: < 4.00 | pIC50 [3]: 5.68 | inhibition [4]: Active | Activity (HT-29 [5]): Non-Toxic | Activity (HT-29 [6]): Non-Toxic | Activity (HCT-116): Non-Toxic | Activity (RKO): Non-Toxic | Activity (HT-29 [7]): Active | inhibition [8]: Active
